“And” between values parts separate entries of the source, which are not always exact repeats. Identical values can stand only once. Toxic doses and inconclusive results are not listed.
Tested on: L1210 leukemia ip in BDF1 mice, survival T/C
Test: NCI In Vivo Anticancer Drug Screen. Data for tumor model L1210 Leukemia (intraperitoneal) in B6D2F1 (BDF1) mice
Settings: endpoint: mean survival time, higher = longer survival
Outline: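 In this screen, tumor-bearing mice given compound are compared to those given vehicle, and their survival values are reported as a treated-to-control quotient.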

[1] = dose: 100.0 mg/kg/injection, schedule: Q04DX003 (ip), vehicle: Klucel (hydroxypropylcellulose) (HPC)
[2] = dose: 100.0 mg/kg/injection, schedule: Q01DX009 (ip), vehicle: Klucel (hydroxypropylcellulose) (HPC)
[3] = dose: 200.0 mg/kg/injection, schedule: Q01DX009 (ip), vehicle: Klucel (hydroxypropylcellulose) (HPC)
[4] = dose: 400.0 mg/kg/injection, schedule: Q01DX009 (ip), vehicle: Klucel (hydroxypropylcellulose) (HPC)
[5] = dose: 100.0 mg/kg/injection, schedule: Q04DX003 (ip), vehicle: saline
[6] = dose: 200.0 mg/kg/injection, schedule: Q04DX003 (ip), vehicle: saline
[7] = dose: 400.0 mg/kg/injection, schedule: Q04DX003 (ip), vehicle: saline
[8] = dose: 100.0 mg/kg/injection, schedule: Q04DX002 (ip), vehicle: saline with Tween-80
[9] = dose: 200.0 mg/kg/injection, schedule: Q04DX002 (ip), vehicle: saline with Tween-80
[10] = dose: 12.5 mg/kg/injection, schedule: Q04DX003 (ip), vehicle: saline
[11] = dose: 250.0 mg/kg/injection, schedule: Q01DX001 (ip), vehicle: carboxymethylcellulose (CMC)

O=[N+]([O-])c1cc([N+](=O)[O-])c2ccc(S(=O)(=O)O)cc2c1O
T/C (dose: 20.0 mg/kg/injection, schedule: Q01DX009 (ip), vehicle: Klucel (hydroxypropylcellulose) (HPC)): 97 % of control
T/C (dose: 20.0 mg/kg/injection, schedule: Q04DX003 (ip), vehicle: Klucel (hydroxypropylcellulose) (HPC)): 110 % of control
T/C (dose: 40.0 mg/kg/injection, schedule: Q01DX009 (ip), vehicle: Klucel (hydroxypropylcellulose) (HPC)): 100 % of control
T/C (dose: 40.0 mg/kg/injection, schedule: Q04DX003 (ip), vehicle: Klucel (hydroxypropylcellulose) (HPC)): 109 % of control
T/C (dose: 80.0 mg/kg/injection, schedule: Q01DX009 (ip), vehicle: Klucel (hydroxypropylcellulose) (HPC)): 103 % of control
T/C (dose: 80.0 mg/kg/injection, schedule: Q04DX003 (ip), vehicle: Klucel (hydroxypropylcellulose) (HPC)): 105 % of control
T/C [1]: 106 % of control

O=C(Nc1cccc(F)c1)Nc1ccc2ccccc2c1
T/C [2]: 105 % of control
T/C [3]: 97 % of control
T/C [4]: 97 % of control

C[N+](C)(C)CCOC(=O)C1C2CC3OC(=O)C1C3C2 (centres undefined)
T/C [5]: 98 % of control
T/C [6]: 102 % of control
T/C [7]: 96 % of control

O=C(NC/C(Br)=C/Br)Nc1cccc2ccccc12
T/C [8]: 97 % of control
T/C [9]: 90 % of control
T/C (dose: 400.0 mg/kg/injection, schedule: Q04DX002 (ip), vehicle: saline with Tween-80): 97 % of control

O=C(Nc1ccc([N+](=O)[O-])cc1Cl)Oc1ccc(Cl)cc1Cc1ccccc1
T/C (dose: 100.0 mg/kg/injection, schedule: Q04DX003 (ip), vehicle: saline with Tween-80): 88 % of control
T/C (dose: 200.0 mg/kg/injection, schedule: Q04DX003 (ip), vehicle: saline with Tween-80): 93 % of control
T/C (dose: 400.0 mg/kg/injection, schedule: Q04DX003 (ip), vehicle: saline with Tween-80): 102 % of control

OC1CC2c3ccccc3C1c1cccc[n+]12 (centres undefined)
T/C (dose: 12.5 mg/kg/injection, schedule: Q01DX009 (ip), vehicle: Klucel (hydroxypropylcellulose) (HPC)): 98 % of control
T/C (dose: 12.5 mg/kg/injection, schedule: Q04DX003 (ip), vehicle: Klucel (hydroxypropylcellulose) (HPC)): 94 % of control and 97 % of control
T/C [10]: 100 % of control
T/C (dose: 25.0 mg/kg/injection, schedule: Q01DX009 (ip), vehicle: Klucel (hydroxypropylcellulose) (HPC)): 96 % of control
T/C (dose: 25.0 mg/kg/injection, schedule: Q04DX003 (ip), vehicle: Klucel (hydroxypropylcellulose) (HPC)): 103 % of control and 95 % of control
T/C (dose: 25.0 mg/kg/injection, schedule: Q04DX003 (ip), vehicle: saline): 103 % of control
T/C (dose: 50.0 mg/kg/injection, schedule: Q01DX009 (ip), vehicle: Klucel (hydroxypropylcellulose) (HPC)): 94 % of control
T/C (dose: 50.0 mg/kg/injection, schedule: Q04DX003 (ip), vehicle: Klucel (hydroxypropylcellulose) (HPC)): 94 % of control and 95 % of control
T/C (dose: 50.0 mg/kg/injection, schedule: Q04DX003 (ip), vehicle: saline): 97 % of control
T/C [5]: 102 % of control

c1cnc(N2CCCCC2)cn1
T/C (dose: 100.0 mg/kg/injection, schedule: Q01DX001 (ip), vehicle: saline): 94 % of control
T/C (dose: 200.0 mg/kg/injection, schedule: Q01DX001 (ip), vehicle: saline): 96 % of control
T/C (dose: 400.0 mg/kg/injection, schedule: Q01DX001 (ip), vehicle: saline): 102 % of control

O=[N+]([O-])c1cccc(S(=O)(=O)NNc2cccc(C(F)(F)F)c2)c1
T/C [1]: 99 % of control
T/C (dose: 200.0 mg/kg/injection, schedule: Q04DX003 (ip), vehicle: Klucel (hydroxypropylcellulose) (HPC)): 94 % of control
T/C (dose: 400.0 mg/kg/injection, schedule: Q04DX003 (ip), vehicle: Klucel (hydroxypropylcellulose) (HPC)): 89 % of control

Nc1nc(N)c(CCCCc2ccc([N+](=O)[O-])cc2)c(N)n1
T/C [2]: 100 % of control
T/C [3]: 102 % of control
T/C [4]: 94 % of control

O=NN(CCCl)C(=O)Nc1ccc2c(c1)CCCC2
T/C (dose: 31.0 mg/kg/injection, schedule: Q01DX001 (ip), vehicle: carboxymethylcellulose (CMC)): 124 % of control
T/C (dose: 84.0 mg/kg/injection, schedule: Q01DX001 (ip), vehicle: carboxymethylcellulose (CMC)): 186 % of control
T/C (dose: 119.0 mg/kg/injection, schedule: Q01DX001 (ip), vehicle: carboxymethylcellulose (CMC)): 231 % of control
T/C (dose: 125.0 mg/kg/injection, schedule: Q01DX001 (ip), vehicle: carboxymethylcellulose (CMC)): 188 % of control
T/C (dose: 178.0 mg/kg/injection, schedule: Q01DX001 (ip), vehicle: carboxymethylcellulose (CMC)): 216 % of control
T/C (dose: 187.0 mg/kg/injection, schedule: Q01DX001 (ip), vehicle: carboxymethylcellulose (CMC)): 215 % of control
T/C (dose: 238.0 mg/kg/injection, schedule: Q01DX001 (ip), vehicle: carboxymethylcellulose (CMC)): 223 % of control
T/C [11]: 89 % of control
T/C (dose: 357.0 mg/kg/injection, schedule: Q01DX001 (ip), vehicle: carboxymethylcellulose (CMC)): 101 % of control

CCCCCCNC(N)=O
T/C (dose: 50.0 mg/kg/injection, schedule: Q01DX009 (ip), vehicle: saline with Tween-80): 93 % of control and 100 % of control
T/C (dose: 100.0 mg/kg/injection, schedule: Q01DX009 (ip), vehicle: saline with Tween-80): 100 % of control and 101 % of control
T/C (dose: 200.0 mg/kg/injection, schedule: Q01DX009 (ip), vehicle: saline with Tween-80): 100 % of control and 101 % of control

[Cl][Cu][Cl]
T/C (dose: 3.13 mg/kg/injection, schedule: Q01DX009 (ip), vehicle: saline): 100 % of control
T/C (dose: 6.25 mg/kg/injection, schedule: Q01DX009 (ip), vehicle: saline): 95 % of control
T/C (dose: 6.25 mg/kg/injection, schedule: Q04DX003 (ip), vehicle: saline): 102 % of control
T/C (dose: 12.5 mg/kg/injection, schedule: Q01DX009 (ip), vehicle: saline): 90 % of control
T/C [10]: 107 % of control

O=C(O)c1c2ccccc2nc2[nH]c(=O)[nH]c(=O)c12
T/C (dose: 100.0 mg/kg/injection, schedule: Q04DX002 (ip), vehicle: Klucel (hydroxypropylcellulose) (HPC)): 97 % of control
T/C (dose: 200.0 mg/kg/injection, schedule: Q04DX002 (ip), vehicle: Klucel (hydroxypropylcellulose) (HPC)): 108 % of control
T/C (dose: 400.0 mg/kg/injection, schedule: Q04DX002 (ip), vehicle: Klucel (hydroxypropylcellulose) (HPC)): 108 % of control

Cn1cnc([N+](=O)[O-])c1Sc1ncnc2nc[nH]c12
T/C (dose: 8.0 mg/kg/injection, schedule: Q01DX Z (ip), vehicle: methylcellulose (MC)): 109 % of control
T/C (dose: 12.0 mg/kg/injection, schedule: Q01DX Z (ip), vehicle: methylcellulose (MC)): 112 % of control
T/C (dose: 17.0 mg/kg/injection, schedule: Q01DX Z (ip), vehicle: methylcellulose (MC)): 117 % of control
T/C (dose: 25.0 mg/kg/injection, schedule: Q01DX Z (ip), vehicle: methylcellulose (MC)): 104 % of control
T/C (dose: 62.0 mg/kg/injection, schedule: Q01DX001 (ip), vehicle: carboxymethylcellulose (CMC)): 124 % of control
T/C [11]: 150 % of control
T/C (dose: 500.0 mg/kg/injection, schedule: Q01DX001 (ip), vehicle: carboxymethylcellulose (CMC)): 165 % of control

NN(C(=O)c1ccc([N+](=O)[O-])cc1)C1CCCCC1
T/C (dose: 100.0 mg/kg/injection, schedule: Q04DX003 (ip), vehicle: acetone): 96 % of control
T/C (dose: 200.0 mg/kg/injection, schedule: Q04DX003 (ip), vehicle: acetone): 106 % of control
T/C (dose: 400.0 mg/kg/injection, schedule: Q04DX003 (ip), vehicle: acetone): 93 % of control

Cc1ccc(S(=O)(=O)C[n+]2ccccc2)cc1
T/C [8]: 98 % of control
T/C [9]: 94 % of control

O=Cc1c[nH]c(=O)[nH]c1=O
T/C (dose: 50.0 mg/kg/injection, schedule: Q01DX009 (ip), vehicle: saline): 109 % of control
T/C (dose: 100.0 mg/kg/injection, schedule: Q01DX001 (ip), vehicle: Klucel (hydroxypropylcellulose) (HPC)): 94 % of control
T/C (dose: 100.0 mg/kg/injection, schedule: Q01DX009 (ip), vehicle: saline): 103 % of control
T/C [5]: 95 % of control
T/C (dose: 200.0 mg/kg/injection, schedule: Q01DX001 (ip), vehicle: Klucel (hydroxypropylcellulose) (HPC)): 105 % of control
T/C (dose: 200.0 mg/kg/injection, schedule: Q01DX009 (ip), vehicle: saline): 106 % of control
T/C [6]: 103 % of control
T/C (dose: 400.0 mg/kg/injection, schedule: Q01DX001 (ip), vehicle: Klucel (hydroxypropylcellulose) (HPC)): 101 % of control
T/C [7]: 95 % of control

Reference: PubChem BioAssay AID248 (DTP/NCI, 2004)
